This note sets out measurements from patent publication US12427192B2, “Water soluble adjuvant and composition containing same” (Sumitomo Pharma Co., Ltd., priority 2019, dated 2025).

In data set [1] the test system is HLA-A*02:01 transgenic mouse. Put plainly: Test 13: in vivo adjuvant activity, cocktail vaccine h (emulsified composition 3), IFNγ ELISPOT. To be noted: added to cocktail vaccine h (emulsified composition 3); 0.04 nmol per body, twice; FIG. 14. As for the experimental part: Evaluation of In Vivo Adjuvant Activity in HLA-A*02:01 Transgenic Mouse
The in vivo adjuvant activity of the compound of Example 1 was evaluated in the following procedure. To a cocktail vaccine (emulsified composition 3) comprising Compound of formula 4 prepared in Reference example 8 and Peptide SEQ ID No. 3 prepared in Reference example 3 (hereinafter, referred to as “cocktail vaccine h”) was added the compound prepared in Example 1 to prepare a vaccine. The vaccine was administered to a HLA-A*02:01 transgenic mouse, and the adjuvant activity of the vaccine was evaluated by the method of testing antigen-specific CTL induction.
For example, the above emulsified composition 3 was prepared as follows. 95.8% (w/w) of isopropyl myristate, 3% (w/w) of PEG-30 dipolyhydroxy stearate, and 1.2% (w/w) of polysorbate 80 were mixed to prepare an oil-phase mixture. The amount of the preparation was adjusted as appropriate. Compound of formula 4 and Peptide SEQ ID No. 3 were mixed with pH 2.5 buffer (10 mM tartaric acid, 10% trehalose) to adjust each concentration to 3 mg/mL and 2.25 mg/mL, respectively. The prepared peptide dilution was mixed with an equal volume of the oil-phase mixture to give an emulsified product, cocktail vaccine h. […] Then, after removal of the supernatant from the wells, stained spots on the ELISPOT plate were counted.

Data set [2] in a line: Spleen weight in the mice tested in Tests 11-18. It counts as in vivo, mouse.
Data set [3] relates to HLA-A*24:02 transgenic mouse. Description: Test 8: in vivo adjuvant activity, vaccine e (Peptide SEQ ID No. 18), IFNγ ELISPOT. As to conditions: added to vaccine e; 0.4 nmol per body, twice; FIG. 5. As to the method:
Evaluation of In Vivo Adjuvant Activity in HLA-A*24:02 Transgenic Mouse
The in vivo adjuvant activity of the compound of Example 1 was evaluated in the following procedure. To a vaccine prepared by mixing Peptide SEQ ID No. 18 prepared in Reference example 20 with Montanide ISA 51 VG (hereinafter, referred to as “vaccine e”) was added the compound prepared in Example 1 to prepare a vaccine. The vaccine was administered to a HLA-A*24:02 transgenic mouse, and the adjuvant activity of the vaccine was evaluated by the method of testing antigen-specific CTL induction. The TYAGCLSQIF in Peptide SEQ ID No. 18 corresponds to an antigen peptide derived from an HLA-A*24:02-restricted Or7c1 protein.
The character for inducing CTLs specific to the antigen peptide (SEQ ID No. 18) by vaccine e was evaluated by measuring whether IFNγ can be produced upon stimulation of splenocytes from the mouse with the peptide. In addition, the character for exerting in vivo adjuvant activity by the compound in Example 1 was evaluated by comparing the number of CTLs induced by vaccine e and the number of CTLs induced by the vaccine prepared by adding the compound prepared in Example 1 to vaccine e, and checking presence or absence of the increase on the number.
Specifically, Peptide of SEQ ID No. 18 was dissolved in DMSO, and then diluted with water for injection to concentrations of 3 mg/mL. […]

As for `CCCCCNc1nc(N)nc(C)c1Cc1ccc(CN(C)CCOCCOCCOCCOCCO)cc1OC` [Example 1, 1-(4-{[2-amino-4-methyl-6-(pentylamino)pyrimidin-5-yl]methyl}-3-methoxyphenyl)-2-methyl-5,8,11,14-tetraoxa-2-azahexadecan-16-ol·trifluoroacetate], the “CTL counts responsive to Peptide SEQ ID No. 1 compared with adding no compound” value in data set [1] is “more”. Moreover, the spleen weight entry in data set [2] (mice tested in Tests 11-13 (emulsified compositions), FIG. 26) is recorded as “does not induce a pronounced increase of spleen weight”; in data set [2] (mice tested in Tests 14 and 15 (oily suspension, hydrogel), FIG. 27), “does not induce a pronounced increase of spleen weight”; in data set [2] (mice tested in Tests 16-18 (liposome formulations), FIG. 28) it was “does not induce a pronounced increase of spleen weight”. The “CTL counts responsive to Peptide of SEQ ID No. 18 compared with adding no compound” value in data set [3] was “more”.
